# Measurements from patent US11738065B2, “Polypeptides and analogues thereof for use in the treatment of diabetes and bone disorders” (UNIVERSITY OF ULSTER, priority 2015, dated 2023).
# Columns and labels:
# Assay type in all cases: in vivo
# lean control mice = experiment: Acute and persistent glucose lowering and insulin releasing effects in lean control mice
# Protocol: All animal experiments were carried out in accordance with the UK Animals (Scientific Procedures) Act 1986. For food intake studies, fasted (18 h) mice were given intraperitoneal (i.p) injections of polypeptides at a dose of 25, 100 or 250 nmol/kg bw. Mice were then allowed free access to normal chow for 180 mins and cumulative food intake measured. […] Blood samples were collected from the cut tip on the tail vein of conscious mice into chilled fluoride/heparin glucose micro-centrifuge tubes (Sarstedt, Numbrecht, Germany) at the time points indicated in the Drawings. Blood glucose was measured directly using a hand-held Ascencia Contour blood glucose meter (Bayer Healthcare, Newbury, Berkshire, UK).
# high fat fed mice [1] = experiment: Glucose tolerance test after 21 days treatment
# Protocol: Twice daily (09:30 and 17:30 h) i.p. injections of saline vehicle (0.9% w/v NaCl), polypeptides (at 25 nmol/kg bw) were administered for 21 days in high fat mice. Energy intake and body weight were monitored daily, and non-fasting blood glucose and plasma insulin concentrations were assessed at 3 day intervals. On day 21, a non-fasted 24 h glucose profile was conducted. At the end of the treatment period, i.p. glucose tolerance (18 mmol/kg bw), biological response to GIP (18 mmol/kg glucose in combination with native GIP (25 nmol/kg); i.p.) and insulin sensitivity (15 U/kg bw; i.p.) tests were performed. HOMA-IR was determined using the equation HOMA-IR=fasting glucose (mmol/l)×fasting insulin (mU/l)/22.5. All test solutions were administered in a final volume of 5 ml/kg body weight, at 10:00 h without previous 09:30 h peptide injection. Terminal analysis included measurement of total body fat and lean mass by DEXA scanning (Piximus Densitometer, Inside Outside Sales, Madison Wis., USA) and extraction of pancreatic tissue for analysis as detailed below. Immunohistochemistry Pancreatic tissue was excised, divided longitudinally and either immediately snap frozen for subsequent extraction of insulin using acid ethanol extraction (5 ml/g) as described by Irwin et al., 2015 (Diabetes. 2015 August; 64(8):2996-3009), or processed for immunohistochemical examination. Briefly, pancreatic tissues were fixed in 4% parafolmaldehyde at 4° C. for 48 h. Pancreata were then embedded in paraffin wax and processed using an automated tissue processor (Leica TP1020, Leica Microsystems, Nussloch, Germany). Immunohistochemistry was performed as described by Vasu et al., 2014 (PLoS One. 2014 Jun. 26; 9(6):e101005). Succinctly, tissue sections were deparaffinised, rehydrated and probed with primary antibodies: mouse anti-insulin antibody (1:500; Abcam, ab6995) or guinea-pig anti-glucagon antibody (PCA2/4, 1:400; raised in-house). The sections were then incubated with secondary antibody, Alexa Fluor 488 goat anti-guinea pig IgG (1:400) or Alexa Fluor 594 goat anti-mouse IgG (1:400); respectively. […] Islet parameters were analysed using Cell^F image analysis software (Olympus Soft Imaging Solutions, GmbH).
# Tests were conducted after twice daily treatment with saline vehicle (0.9% (w/v) NaCl), (DAla^2)GIP and (DAla^2)GIP/xenin-8-Gln (each at 25 nmol/kg bw) for 21 days. For glucose tolerance test, blood glucose and plasma insulin concentrations were measured before and 15, 30, 60 and 105 min after i.p injection of glucose (18 mmol/kg bw). For metabolic response to GIP, blood glucose and plasma insulin concentrations were measured before and 15, 30, 60 and 105 min after i.p injection of glucose (18 mmol/kg bw) in combination with GIP (25 nmol/kg bw). […]
# high fat fed mice [2] = experiment: Insulin sensitivity test and HOMA-IR after 21 days treatment
# Protocol: On day 21, a non-fasted 24 h glucose profile was conducted. […] HOMA-IR was determined using the equation HOMA-IR=fasting glucose (mmol/l)×fasting insulin (mU/l)/22.5. […] Terminal analysis included measurement of total body fat and lean mass by DEXA scanning (Piximus Densitometer, Inside Outside Sales, Madison Wis., USA) and extraction of pancreatic tissue for analysis as detailed below. […] Briefly, pancreatic tissues were fixed in 4% parafolmaldehyde at 4° C. for 48 h. Pancreata were then embedded in paraffin wax and processed using an automated tissue processor (Leica TP1020, Leica Microsystems, Nussloch, Germany). Immunohistochemistry was performed as described by Vasu et al., 2014 (PLoS One. 2014 Jun. 26; 9(6):e101005). […] Abcam, ab6995) or guinea-pig anti-glucagon antibody (PCA2/4, 1:400; raised in-house). […] The slides were viewed under a FITC (488 nm) or TRITC filter (594 nm) using a fluorescent microscope (Olympus system microscope, model BX51) and photographed using a DP70 camera adapter system. Islet parameters were analysed using Cell^F image analysis software (Olympus Soft Imaging Solutions, GmbH).
# [3] = 25 nmol/kg 4 h before glucose 18 mmol/kg, vs saline
# [4] = 0-105 min, glucose 18 mmol/kg i.p., 18 h fasted, after 21 days 25 nmol/kg twice daily, mean ± SEM
# [5] = 21 days treatment, vs high fat controls
structure (smiles),measurement,setting,value
"CC[C@H](C)[C@H](NC(=O)[C@H](CO)NC(=O)[C@H](Cc1ccc(O)cc1)NC(=O)[C@H](CC(=O)O)NC(=O)[C@H](CO)NC(=O)[C@@H](NC(=O)[C@H](Cc1ccccc1)NC(=O)[C@@H](NC(=O)CNC(=O)[C@H](CCC(=O)O)NC(=O)[C@@H](C)NC(=O)[C@@H](N)Cc1ccc(O)cc1)[C@@H](C)O)[C@@H](C)CC)C(=O)N[C@@H](C)C(=O)N[C@@H](CCSC)C(=O)N[C@@H](CC(=O)O)C(=O)N[C@@H](CCCCN)C(=O)N[C@H](C(=O)N[C@@H](Cc1c[nH]cn1)C(=O)N[C@@H](CCC(N)=O)C(=O)N[C@@H](CCC(N)=O)C(=O)N[C@@H](CC(=O)O)C(=O)N[C@@H](Cc1ccccc1)C(=O)N[C@H](C(=O)N[C@@H](CC(N)=O)C(=O)N[C@@H](Cc1c[nH]c2ccccc12)C(=O)N[C@@H](CC(C)C)C(=O)N[C@@H](CC(C)C)C(=O)N[C@@H](C)C(=O)N[C@@H](CCC(N)=O)C(=O)N[C@@H](CCCCN)C(=O)NCC(=O)N[C@@H](CCCCN)C(=O)N[C@@H](CCCCN)C(=O)N[C@@H](CC(N)=O)C(=O)N[C@@H](CC(=O)O)C(=O)N[C@@H](Cc1c[nH]c2ccccc12)C(=O)N[C@@H](CCCCN)C(=O)N[C@@H](Cc1c[nH]cn1)C(=O)N[C@@H](CC(N)=O)C(=O)N[C@H](C(=O)N[C@H](C(=O)N[C@@H](CCC(N)=O)C(=O)O)[C@@H](C)O)[C@@H](C)CC)C(C)C)[C@@H](C)CC [(DAla2)GIP, TYR-(d)ALA-GLU-GLY-THR-PHE-ILE-SER-ASP-TYR-SER-ILE-ALA-MET-ASP-LYS-ILE-HIS-GLN-GLN-ASP-PHE-VAL-ASN-TRP-LEU-LEU-ALA-GLN-LYS-GLY-LYS-LYS-ASN-ASP-TRP-LYS-HIS-ASN-ILE-THR-GLN]","Overall AUC blood glucose, peptide 4 h prior to glucose load",lean control mice; [3],significantly reduced
same,"Plasma insulin AUC, peptide 4 h prior to glucose load",lean control mice; [3],increased plasma insulin AUC values (P<0.05)
same,Blood glucose at 15 min post-injection,lean control mice; 25 nmol/kg with glucose 18 mmol/kg i.p.,significant (P<0.05) reduction in blood glucose levels
same,Blood glucose at 30 min post injection,"lean control mice; 25 nmol/kg with glucose 18 mmol/kg i.p., non-fasted mice, vs glucose alone",significantly (P<0.05) lowered blood glucose values
same,Overall 0-105 min AUC blood glucose,"lean control mice; 25 nmol/kg with glucose 18 mmol/kg i.p., vs glucose alone",significantly (P<0.05) decreased
same,Glucose tolerance test Blood glucose AUC,high fat fed mice [1]; [4],1714.7 ± 138.6^Δ mmol/l · min
same,Glucose tolerance test Plasma insulin AUC,high fat fed mice [1]; [4],65.4 ± 9.2^Δ ng/ml · min
same,Glucose-stimulated plasma insulin AUC,high fat fed mice [1]; [5],"reduced, albeit non-significantly"
same,Overall AUC blood glucose following a glucose load,"high fat fed mice [1]; 21 days treatment, vs saline controls",strong tendency to reduce overall AUC blood glucose levels
same,HOMA-IR insulin sensitivity,high fat fed mice [2]; [5],significantly (P<0.05) improved insulin sensitivity
same,Individual blood glucose levels following exogenous insulin,"high fat fed mice [2]; insulin 15 U/kg i.p., day 21, vs high fat controls","reduced, albeit non-significantly"
same,Overall glucose lowering effect of insulin (blood glucose AAC 0-60 min),"high fat fed mice [2]; insulin 15 U/kg i.p., day 21, vs saline control high fat mice",significantly (P<0.001) improved
